Literature values, collected in patent US20210322342A1, “ENDOXIFEN FOR THE TREATMENT OF BIPOLAR I DISORDER” (Jina Pharmaceuticals, Inc., priority 2020, published 2021).

Legend:
PKC = details: compared to tamoxifen
[1] = for plasma levels of free thyroxin (fT4): use of antipsychotics

Row | SMILES | potency in inhibiting the PKC activity (PKC) | plasma levels of free thyroxin (fT4) [1] | haematological adverse effects ([1]; in vivo)
1 | CC/C(=C(\c1ccc(O)cc1)c1ccc(OCCNC)cc1)c1ccccc1.O=C(O)CC(O)(CC(=O)O)C(=O)O [Endoxifen, (Z)—1-(4-Hydroxyphenyl)-1-{4-[2-(monomethylamino)ethoxy]phenyl}—2—pheny 1-1-butene citrate] | four-fold higher potency |  | 
2 | OCCOCCN1CCN(C2=Nc3ccccc3Sc3ccccc32)CC1 [quetiapine] |  | significantly lower | 
3 | Cc1cc2c(s1)Nc1ccccc1N=C2N1CCN(C)CC1 [olanzapine] |  | significantly lower | causes neutropenia and thrombocytopenia
